Article PMC12480751, “A quantitative high-throughput screening pipeline to identify small molecule inhibitors of Chikungunya nsP2 protease” (Scientific Reports, 2025)
Entries after “also recorded” stand apart in the source; their conditions may differ. Like-named read-outs stand apart in the source and are kept apart here.

How the values were obtained:
[1] = test system: CHIKV 181/25 vaccine strain; assay: CHIKV181/25 infection assay in SNB-19 cells, high-content immunofluorescence
CHIKV nsP2pro = CHIKV nsP2pro (Chikungunya virus, UniProt Q8JUX6); assay: FRET-based nsP2pro proteolytic assay with peptide 2 (nsp3/4 site), 1,536-well qHTS; assay type: biochemical; conditions: for inhibitory activity against CHIKV nsP2: biochemical assays; for selectivity for nsP2pro versus Papain, hFurin and HCV NS3-4A: based on biochemical counterscreens; for Emax: read-out: Enzymatic % Efficacy
nsP2 protease = target: T1, nsP2 protease (Chikungunya virus, UniProt Q8JUX6); assay: cell-based; assay type: cell-based; conditions: for Emax: HEK293, read-out: Cell-based % Efficacy
T1 construct: expressed in transfected cells; host or cells: HEK293T (the results text says HEK293), transient co-transfection in pcDNA3.1(+)
T1 sequence (Q8JUX6 755-1333 limits assumed): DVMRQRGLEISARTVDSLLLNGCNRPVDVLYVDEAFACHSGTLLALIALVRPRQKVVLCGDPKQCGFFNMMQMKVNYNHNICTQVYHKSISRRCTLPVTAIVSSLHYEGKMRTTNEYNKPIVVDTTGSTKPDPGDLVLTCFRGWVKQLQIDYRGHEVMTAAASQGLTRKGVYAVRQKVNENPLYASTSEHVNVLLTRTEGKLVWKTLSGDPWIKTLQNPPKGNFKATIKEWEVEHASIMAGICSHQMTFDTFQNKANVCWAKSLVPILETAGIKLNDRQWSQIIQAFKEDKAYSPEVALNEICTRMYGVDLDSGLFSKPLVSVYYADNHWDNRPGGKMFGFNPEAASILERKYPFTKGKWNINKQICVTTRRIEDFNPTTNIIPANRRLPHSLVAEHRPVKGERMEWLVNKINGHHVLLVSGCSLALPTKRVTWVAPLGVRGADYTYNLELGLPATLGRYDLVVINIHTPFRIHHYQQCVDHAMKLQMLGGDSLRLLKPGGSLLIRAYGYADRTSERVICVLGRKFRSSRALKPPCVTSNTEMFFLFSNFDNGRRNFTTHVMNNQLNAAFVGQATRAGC

nsP2pro = nsP2pro (Chikungunya virus, UniProt Q8JUX6); conditions: for nsP2pro Vmax: 150 nM nsP2pro (peptide 2) or 2 μM nsP2pro (peptide 3); for Km: read-out: nsP2pro Km; for Km / nsP2pro kcat: substrate peptide
FL nsP2 = FL nsP2 (Chikungunya virus, UniProt Q8JUX6, C1333A); conditions: for full-length nsP2 Vmax: 150 nM nsP2 (peptide 2) or 2 μM nsP2 (peptide 3); for Km: read-out: FL nsP2 Km; for Km / FL nsP2 kcat: substrate peptide
human Furin = human Furin (Homo sapiens, UniProt P09958); assay: human Furin FRET selectivity counterscreen; assay type: biochemical
[2] = CellTiter-Glo cell viability assay of SNB19 cells; assay type: cell-based, human; conditions: human, SNB19 cells
Experimental: Cells were harvested in growth media and dispensed (5 µL /1,000 cells/well) onto 1536-well white plates (Aurora #EWB041000A) using a Multidrop Combi. Control and test compounds were added (25 nL) using an Echo 650 liquid handler. Plates were incubated for 48 h at 37 °C and 5% CO2 and then equilibrated to room temperature prior to addition of 4 µL /well of CellTiter-Glo (Promega) using a Multidrop Combi. Plates were subsequently incubated for 15 min at room temperature and centrifuged for 1 min at 1000 rpm. Luminescence was read on a ViewLux imager equipped with clear filters.

Papain = Papain (Carica papaya, UniProt P00784)
[3] = nsP2pro biochemical assay, 13 cell-active hits
[4] = nsP2pro biochemical assay, 13 cell-active hits, read-out: Enzymatic IC50

Sequence of Papain (P00784 134-345): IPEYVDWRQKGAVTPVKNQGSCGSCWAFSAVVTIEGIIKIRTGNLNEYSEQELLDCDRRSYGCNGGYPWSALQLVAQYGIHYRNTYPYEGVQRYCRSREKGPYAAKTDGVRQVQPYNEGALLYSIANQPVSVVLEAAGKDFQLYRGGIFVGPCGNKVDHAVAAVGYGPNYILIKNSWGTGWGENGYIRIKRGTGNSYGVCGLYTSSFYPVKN
Sequence of human Furin (P09958 108-794): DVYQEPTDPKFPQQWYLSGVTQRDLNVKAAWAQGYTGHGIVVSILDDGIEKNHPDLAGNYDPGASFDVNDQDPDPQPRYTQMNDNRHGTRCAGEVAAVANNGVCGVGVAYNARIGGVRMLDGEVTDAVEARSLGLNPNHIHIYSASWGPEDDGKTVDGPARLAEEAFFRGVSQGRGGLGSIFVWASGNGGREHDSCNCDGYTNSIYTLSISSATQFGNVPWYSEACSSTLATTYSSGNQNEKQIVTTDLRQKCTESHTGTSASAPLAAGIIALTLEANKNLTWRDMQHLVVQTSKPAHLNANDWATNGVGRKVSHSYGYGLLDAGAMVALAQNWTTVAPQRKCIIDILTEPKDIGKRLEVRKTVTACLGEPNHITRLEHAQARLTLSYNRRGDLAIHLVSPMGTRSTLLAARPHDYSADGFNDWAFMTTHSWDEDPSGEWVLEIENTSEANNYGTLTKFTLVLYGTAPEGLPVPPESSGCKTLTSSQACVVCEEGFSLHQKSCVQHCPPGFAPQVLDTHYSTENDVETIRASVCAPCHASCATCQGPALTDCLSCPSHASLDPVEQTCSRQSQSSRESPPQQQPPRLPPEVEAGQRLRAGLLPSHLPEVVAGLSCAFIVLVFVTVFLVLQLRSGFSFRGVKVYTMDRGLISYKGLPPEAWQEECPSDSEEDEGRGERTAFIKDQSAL

With `Nc1ccn([C@@H]2O[C@H](CO)[C@@H](O)C2(F)F)c(=O)n1` [Gemcitabine] the “concentrations showing consistent CHIKV inhibition” value ([1]; SNB-19 cells, infection inhibition control) was “under 1 µM”.

For `COC(=O)CC[C@H](NC(=O)[C@H](CC(=O)OC)NC(=O)OCc1ccccc1)C(=O)N[C@H](C(=O)N[C@@H](CC(=O)OC)C(=O)CF)C(C)C` [Z-DEVD-FMK], the “inhibitory activity against CHIKV nsP2” value (CHIKV nsP2pro) was “did not identify”.

With `COc1cccc(C(=O)CCN[C@@H](C)[C@H](O)c2ccccc2)c1` [Oxyfedrine] the IC50 (CHIKV nsP2pro) was 1.3 µM, the “selectivity for nsP2pro versus Papain, hFurin and HCV NS3-4A” value (from here on “selectivity for nsP2pro versus Papain”) (CHIKV nsP2pro) was “selective hits; also recorded: specific to nsP2pro” and the Emax (CHIKV nsP2pro) was -88.6%. The AC50 (nsP2 protease) was 2.6 µM and the Emax (nsP2 protease) was 60.3%.

In the case of `Cc1cccc(C(=O)Nc2ccc(N3CCN(c4ccc(F)cc4)CC3)c(C(=O)O)c2)c1` [NCGC00137618], the “Enzymatic % Efficacy” value (CHIKV nsP2pro; [3]) is reported as -83%, the IC50 (CHIKV nsP2pro; [4]) is reported as 10 µM and the “Cell-based % Efficacy” value (nsP2 protease) is reported as 55.5%. For the same compound, the AC50 (nsP2 protease; read-out: Cell-based AC50) was 32.6 µM.

With TMR-DELRLDRAGC/APSYR-K-QSY7 [Peptide 3] the “nsP2pro Vmax” value (nsP2pro) was 1.03 µM/min, the Km (nsP2pro) was 81.9 µM and the nsP2pro kcat (nsP2pro) was 85.5 ± 4.1 x 10^-4 sec^-1. For the same compound, the “full-length nsP2 Vmax” value (FL nsP2) was 0.38 µM/min, the Km (FL nsP2) was 37.5 µM and the “FL nsP2 kcat” value (FL nsP2) was 32.1 ± 2.1 s⁻¹.

For `C/C(=N\NC(=N)N)c1cc(NC(=O)CCCCCCCCC(=O)Nc2cc(/C(C)=N/NC(=N)N)cc(/C(C)=N/NC(=N)N)c2)cc(/C(C)=N/NC(=N)N)c1` [Semapimod], the IC50 (CHIKV nsP2pro) was 6.3 µM, the “selectivity for nsP2pro versus Papain” value (CHIKV nsP2pro) was “not selective” and the Emax (CHIKV nsP2pro) was -106%. The “activity against Furin” value (human Furin) was “weak activity”, the AC50 (nsP2 protease) was 2.2 µM and the Emax (nsP2 protease) was 137%. The CC50 at 48 h [2] was 20.6 µM, the “activity against HCV NS3-4A” value (HCV NS3-4A) was “also inhibited” and the IC50 ([1]; Chikungunya virus, SNB-19, 44 h, read-out: IC50, prevention of CHIKV infection) was 1.6 µM. For the same compound, the “potency on CHIKV infection relative to effect on cell viability” value ([1]; IC50 infection vs CC50 SNB19) was “> tenfold”.

With `CC(C)N(CCC(=O)c1ccc2ccccc2c1)Cc1ccccc1` [ZM39923] the “selectivity for nsP2pro versus Papain” value (CHIKV nsP2pro) was “selective hits”.

With `Cc1cccc(-c2noc([C@@H]3Cc4nc[nH]c4CN3C(=O)NC3CCCCC3)n2)c1` [NCGC00400417] the “selectivity for nsP2pro versus Papain” value (CHIKV nsP2pro) was “not selective”, the “Enzymatic % Efficacy” value (CHIKV nsP2pro; [3]) was -107.3% and the IC50 (CHIKV nsP2pro; [4]) was 2.1 µM. The “Cell-based % Efficacy” value (nsP2 protease) was 75.7% and the AC50 (nsP2 protease; read-out: Cell-based AC50) was 47.2 µM.

With `Nc1nc2c(s1)CCN(Cc1ccc(Cl)cc1)CC2` [B-HT 958] the IC50 (CHIKV nsP2pro) was 7.9 µM, the “selectivity for nsP2pro versus Papain” value (CHIKV nsP2pro) was “specific to nsP2pro” and the Emax (CHIKV nsP2pro) was -62.1%. The AC50 (nsP2 protease) was 0.23 µM and the Emax (nsP2 protease) was 114%.

With `CCC[C@H](NC(=O)[C@@H]1[C@H]2CCC[C@H]2CN1C(=O)[C@@H](NC(=O)[C@@H](NC(=O)c1cnccn1)C1CCCCC1)C(C)(C)C)C(=O)C(=O)NC1CC1` [Telaprevir] the IC50 (CHIKV nsP2pro) was 3.5 µM, the “selectivity for nsP2pro versus Papain” value (CHIKV nsP2pro) was “not selective” and the Emax (CHIKV nsP2pro) was -123%. It also gave an AC50 (nsP2 protease) of 31.6 µM, an Emax (nsP2 protease) of 213% and a CC50 at 48 h [2] of 11.6 µM. The “activity against Papain” value (Papain) was “potently inhibiting” and the “activity against HCV NS3-4A” value (HCV NS3-4A) was “potently inhibiting; also recorded: also inhibited”.

For `O=c1oc2c3c(ccc2c2ccccc12)OCN(Cc1ccccc1Cl)C3` [NCGC00116374], the IC50 (CHIKV nsP2pro) was 4 µM, the “selectivity for nsP2pro versus Papain” value (CHIKV nsP2pro) was “specific to nsP2pro” and the Emax (CHIKV nsP2pro) was -103%. For the same compound, the AC50 (nsP2 protease) was 14.5 µM and the Emax (nsP2 protease) was 112%.

For “5-TAMRA-DELRLDRAGGYIFSS-K-QSY7 [Peptide 2]”, the “nsP2pro Vmax” value (nsP2pro) was 0.26 µM/min, the Km (nsP2pro) was 6.3 µM and the nsP2pro kcat (nsP2pro) was 214.2 ± 13.1 x 10^-4 sec^-1. The “full-length nsP2 Vmax” value (FL nsP2) was 0.2 µM/min, the Km (FL nsP2) was 1.1 µM and the “FL nsP2 kcat” value (FL nsP2) was 167.2 ± 10.4 s⁻¹.

With `C#CC(=O)N(c1ccc(OC)cc1OC)C(C(=O)NCC(=O)OCC)c1cccs1` (stereo not shown) [PACMA 31] the “selectivity for nsP2pro versus Papain” value (CHIKV nsP2pro) was “selective hits”.

With `C[C@H](N)[C@H](O)c1ccc(O)c(O)c1` [Levonordefrin] the IC50 (CHIKV nsP2pro) was 7.7 µM, the “selectivity for nsP2pro versus Papain” value (CHIKV nsP2pro) was “not selective” and the Emax (CHIKV nsP2pro) was -74.9%. The AC50 (nsP2 protease) was 0.4 µM, the Emax (nsP2 protease) was 71.5% and the “activity against HCV NS3-4A” value (HCV NS3-4A) was “also inhibited”.

In the case of `Cc1ccc(OCCn2c(CCNC(=O)c3ccccc3N)nc3ccccc32)cc1` [NCGC00241881], the “selectivity for nsP2pro versus Papain” value (CHIKV nsP2pro) is reported as “not selective”, the “Enzymatic % Efficacy” value (CHIKV nsP2pro; [3]) is reported as -106.1% and the IC50 (CHIKV nsP2pro; [4]) is reported as 1.1 µM. For the same compound, the “Cell-based % Efficacy” value (nsP2 protease) was 179% and the AC50 (nsP2 protease; read-out: Cell-based AC50) was > 50 µM.

In the case of `O=C(O[C@@H]1Cc2c(O)cc(O)cc2O[C@@H]1c1cc(O)c(O)c(O)c1)c1cc(O)c(O)c(O)c1` [EGCG, Epigallocatechin gallate], the “inhibitory activity against CHIKV nsP2” value (CHIKV nsP2pro) is reported as “inhibited nsp2pro activity in vitro”, the “effect on Nluc reporter signal in cellular nsp2 proteolytic assay” value (nsP2 protease) is reported as “did not have an effect” and the “effect on CHIKV infection” value ([1]; SNB-19 cells) is reported as “strongly prevented CHIKV infection”.

With `CCCCN(CCCC)C(=S)[S-].CCCCN(CCCC)C(=S)[S-].[Zn+2]` [Zinc dibutyldithiocarbamate] the “inhibitory activity against CHIKV nsP2” value (CHIKV nsP2pro) was “potent inhibitor”, the “activity against Furin” value (human Furin) was “either weak or had no effect” and the “activity against Papain” value (Papain) was “potent inhibitor”. For the same compound, the “activity against HCV NS3-4A” value (HCV NS3-4A) was “either weak or had no effect” and the “effect on CHIKV infection” value ([1]; SNB-19 cells) was “difficult to distinguish from cell toxicity”.

In the case of `CC(NC(=O)[C@H](Cc1ccccc1)NC(=O)OCc1ccccc1)C(=O)CF` (stereo partly shown) [Z-FA-FMK], the “inhibitory activity against CHIKV nsP2” value (CHIKV nsP2pro) is reported as “minimal inhibitory activity” and the “activity against Papain” value (Papain) is reported as “potently inhibiting”.

For `CCOc1ccc(NC(=O)c2c(NC(=O)Cc3ccccc3)sc3c2CCCCC3)cc1` [NCGC00098557], the “Enzymatic % Efficacy” value (CHIKV nsP2pro; [3]) was -80.1%, the IC50 (CHIKV nsP2pro; [4]) was 7.9 µM and the “Cell-based % Efficacy” value (nsP2 protease) was 101.3%. The AC50 (nsP2 protease; read-out: Cell-based AC50) was 12.9 µM.

In the case of `O=c1oc2c3c(ccc2c2ccccc12)OCN(Cc1ccc(Cl)cc1)C3` [NCGC00116366], the IC50 (CHIKV nsP2pro) is reported as 4.5 µM, the Emax (CHIKV nsP2pro) is reported as -114% and the AC50 (nsP2 protease) is reported as 36.5 µM. It also gave an Emax (nsP2 protease) of 309%.

For `CCCS(=O)(=O)c1ncc(Cl)c(C(=O)N(Cc2ccccc2)Cc2ccco2)n1` [NCGC00115102], the “selectivity for nsP2pro versus Papain” value (CHIKV nsP2pro) was “specific to nsP2pro”.
